Reference: the kinase profiling compilation of Christmann-Franck et al. (2016)

Key:
Experiment in all cases: KINOMEscan competition binding
Conditions in all cases: compound 0.5 µM
ACVR1B (human) = ACVR1B (human) (UniProt P36896)
AKT1 (human) = AKT1 (human) (UniProt P31749)
[1] = system: BRAF (human), P15056 [V600E]
CAMKK1 (human) = CAMKK1 (human) (UniProt Q8N5S9)
CASK (human) = CASK (human) (UniProt O14936)
CDK8 (human) = CDK8 (human) (UniProt P49336)
CDK9 (human) = CDK9 (human) (UniProt P50750)
CSK (human) = CSK (human) (UniProt P41240)
CSNK1G3 (human) = CSNK1G3 (human) (UniProt Q9Y6M4)
DMPK (human) = DMPK (human) (UniProt Q09013)
[2] = system: EIF2AK4 KD2 (human), Q9P2K8 [S808G]
EPHA4 (human) = EPHA4 (human) (UniProt P54764)
EPHA7 (human) = EPHA7 (human) (UniProt Q15375)
EPHB4 (human) = EPHB4 (human) (UniProt P54760)
FGFR3 (human) = FGFR3 (human) (UniProt P22607)
[3] = system: FGFR3 (human), P22607 [G697C]
[4] = system: FLT3 (human), P36888 [N841I]
GRK4 (human) = GRK4 (human) (UniProt P32298)
HUNK (human) = HUNK (human) (UniProt P57058)
[5] = target: JAK1 JH1 catalytic (human) (UniProt P23458)
[6] = target: JAK2 JH1 catalytic (human) (UniProt O60674)
[7] = system: KIT (human), P10721 [D816H]
[8] = system: KIT (human), P10721 [V559D/V654A]
LATS1 (human) = LATS1 (human) (UniProt O95835)
MARK3 (human) = MARK3 (human) (UniProt P27448)
MET (human) = MET (human) (UniProt P08581)
MYLK (human) = MYLK (human) (UniProt Q15746)
MYLK3 (human) = MYLK3 (human) (UniProt Q32MK0)
PI4KB (human) = PI4KB (human) (UniProt Q9UBF8)
[9] = system: PIK3CA (human), P42336 [H1047Y]
PIK3CD (human) = PIK3CD (human) (UniProt O00329)
PLK4 (human) = PLK4 (human) (UniProt O00444)
PRKCD (human) = PRKCD (human) (UniProt Q05655)
PRKG1 (human) = PRKG1 (human) (UniProt Q13976)
RIOK2 (human) = RIOK2 (human) (UniProt Q9BVS4)
RPS6KA3 KD1 (human) = RPS6KA3 KD1 (human) (UniProt P51812)
SNRK (human) = SNRK (human) (UniProt Q9NRH2)
SRPK2 (human) = SRPK2 (human) (UniProt P78362)
STK11 (human) = STK11 (human) (UniProt Q15831)
STK32C (human) = STK32C (human) (UniProt Q86UX6)
TNK1 (human) = TNK1 (human) (UniProt Q13470)

SNRK (human), sequence (Q9NRH2 whole entry, looked up): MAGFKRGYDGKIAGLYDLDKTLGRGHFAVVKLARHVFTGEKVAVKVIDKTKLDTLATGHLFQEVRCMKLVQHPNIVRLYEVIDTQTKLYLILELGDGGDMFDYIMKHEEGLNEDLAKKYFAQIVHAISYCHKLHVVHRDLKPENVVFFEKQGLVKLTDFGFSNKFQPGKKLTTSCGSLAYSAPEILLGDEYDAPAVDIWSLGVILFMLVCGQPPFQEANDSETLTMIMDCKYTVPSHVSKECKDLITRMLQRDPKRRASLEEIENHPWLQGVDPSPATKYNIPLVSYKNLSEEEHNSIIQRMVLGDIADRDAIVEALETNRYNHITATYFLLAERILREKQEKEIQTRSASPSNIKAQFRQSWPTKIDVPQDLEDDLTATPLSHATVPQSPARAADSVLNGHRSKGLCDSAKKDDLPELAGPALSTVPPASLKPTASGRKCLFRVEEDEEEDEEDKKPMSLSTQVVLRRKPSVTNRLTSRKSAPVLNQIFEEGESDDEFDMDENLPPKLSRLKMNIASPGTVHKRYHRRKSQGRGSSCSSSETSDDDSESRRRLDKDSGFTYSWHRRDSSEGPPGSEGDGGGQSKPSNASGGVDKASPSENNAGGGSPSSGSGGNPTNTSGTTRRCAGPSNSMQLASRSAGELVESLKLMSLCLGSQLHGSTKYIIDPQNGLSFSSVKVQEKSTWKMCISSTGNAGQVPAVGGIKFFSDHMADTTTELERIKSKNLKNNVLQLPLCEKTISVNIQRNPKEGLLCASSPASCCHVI
PRKCD (human), sequence (Q05655 whole entry, looked up): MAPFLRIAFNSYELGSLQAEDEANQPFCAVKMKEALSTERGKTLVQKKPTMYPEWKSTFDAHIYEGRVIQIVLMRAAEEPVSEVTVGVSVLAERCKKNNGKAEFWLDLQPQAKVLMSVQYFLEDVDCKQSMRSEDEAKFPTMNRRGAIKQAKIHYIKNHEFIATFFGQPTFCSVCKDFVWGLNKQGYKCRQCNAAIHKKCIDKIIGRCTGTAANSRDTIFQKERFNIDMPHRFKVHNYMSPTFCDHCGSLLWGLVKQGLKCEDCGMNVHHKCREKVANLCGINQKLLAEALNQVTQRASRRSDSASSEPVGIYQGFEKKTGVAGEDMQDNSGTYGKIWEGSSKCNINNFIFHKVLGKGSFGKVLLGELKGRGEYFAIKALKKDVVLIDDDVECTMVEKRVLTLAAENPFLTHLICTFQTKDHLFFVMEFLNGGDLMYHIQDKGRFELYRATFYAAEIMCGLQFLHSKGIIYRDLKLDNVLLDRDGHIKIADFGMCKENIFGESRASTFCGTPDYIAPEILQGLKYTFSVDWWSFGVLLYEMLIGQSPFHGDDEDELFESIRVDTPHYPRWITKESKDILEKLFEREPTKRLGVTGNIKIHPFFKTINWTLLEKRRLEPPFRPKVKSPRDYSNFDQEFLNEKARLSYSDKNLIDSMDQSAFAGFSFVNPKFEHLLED
LATS1 (human), sequence (O95835 whole entry, looked up): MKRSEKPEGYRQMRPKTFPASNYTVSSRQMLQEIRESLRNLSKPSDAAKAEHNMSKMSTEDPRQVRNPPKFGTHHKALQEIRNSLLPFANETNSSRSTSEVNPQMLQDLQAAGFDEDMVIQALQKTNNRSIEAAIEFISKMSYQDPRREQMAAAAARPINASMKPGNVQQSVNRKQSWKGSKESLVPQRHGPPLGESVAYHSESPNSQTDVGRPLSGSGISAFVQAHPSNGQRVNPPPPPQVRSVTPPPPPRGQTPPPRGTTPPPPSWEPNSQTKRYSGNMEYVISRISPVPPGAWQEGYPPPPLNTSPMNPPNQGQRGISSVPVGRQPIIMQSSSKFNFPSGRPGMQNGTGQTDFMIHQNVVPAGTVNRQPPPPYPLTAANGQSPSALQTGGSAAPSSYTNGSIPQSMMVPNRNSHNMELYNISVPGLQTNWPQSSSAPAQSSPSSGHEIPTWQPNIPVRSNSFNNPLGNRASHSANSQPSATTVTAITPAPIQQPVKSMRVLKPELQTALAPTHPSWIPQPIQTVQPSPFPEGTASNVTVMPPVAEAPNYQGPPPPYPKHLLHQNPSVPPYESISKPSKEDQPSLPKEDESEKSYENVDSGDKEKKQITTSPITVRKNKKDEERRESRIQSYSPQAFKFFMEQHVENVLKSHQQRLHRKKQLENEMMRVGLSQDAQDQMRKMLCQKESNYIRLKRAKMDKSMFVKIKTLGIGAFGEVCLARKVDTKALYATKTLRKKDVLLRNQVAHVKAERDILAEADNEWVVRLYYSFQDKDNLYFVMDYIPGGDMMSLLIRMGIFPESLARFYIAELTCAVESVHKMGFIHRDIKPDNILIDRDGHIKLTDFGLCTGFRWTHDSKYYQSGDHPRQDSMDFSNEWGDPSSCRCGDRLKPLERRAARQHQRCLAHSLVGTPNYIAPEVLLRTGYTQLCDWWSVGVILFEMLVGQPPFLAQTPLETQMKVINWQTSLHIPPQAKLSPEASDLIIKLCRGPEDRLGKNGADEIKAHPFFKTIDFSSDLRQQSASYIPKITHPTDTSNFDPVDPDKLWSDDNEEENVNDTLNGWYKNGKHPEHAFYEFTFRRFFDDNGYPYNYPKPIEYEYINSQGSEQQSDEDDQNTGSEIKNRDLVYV
MARK3 (human), sequence (P27448 whole entry, looked up): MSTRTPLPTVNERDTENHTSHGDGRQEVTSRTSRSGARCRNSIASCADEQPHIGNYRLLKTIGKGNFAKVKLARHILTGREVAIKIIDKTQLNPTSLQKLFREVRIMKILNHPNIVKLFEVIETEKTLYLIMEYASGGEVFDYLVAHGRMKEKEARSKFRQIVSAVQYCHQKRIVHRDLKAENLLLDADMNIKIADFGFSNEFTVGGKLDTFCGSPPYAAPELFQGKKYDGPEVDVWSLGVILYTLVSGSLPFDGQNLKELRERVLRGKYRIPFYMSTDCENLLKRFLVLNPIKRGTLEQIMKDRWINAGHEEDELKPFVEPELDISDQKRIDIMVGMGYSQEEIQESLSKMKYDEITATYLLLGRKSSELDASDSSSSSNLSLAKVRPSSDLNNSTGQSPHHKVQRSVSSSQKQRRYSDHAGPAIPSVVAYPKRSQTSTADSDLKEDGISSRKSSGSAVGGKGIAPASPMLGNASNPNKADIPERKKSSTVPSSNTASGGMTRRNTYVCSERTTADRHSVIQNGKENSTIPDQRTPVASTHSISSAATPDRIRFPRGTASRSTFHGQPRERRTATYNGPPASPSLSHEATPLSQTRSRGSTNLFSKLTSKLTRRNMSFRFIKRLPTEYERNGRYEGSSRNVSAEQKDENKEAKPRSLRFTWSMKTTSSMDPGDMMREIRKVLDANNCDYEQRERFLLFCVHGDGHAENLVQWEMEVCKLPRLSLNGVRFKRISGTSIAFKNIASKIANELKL
MYLK3 (human), sequence (Q32MK0 whole entry, looked up): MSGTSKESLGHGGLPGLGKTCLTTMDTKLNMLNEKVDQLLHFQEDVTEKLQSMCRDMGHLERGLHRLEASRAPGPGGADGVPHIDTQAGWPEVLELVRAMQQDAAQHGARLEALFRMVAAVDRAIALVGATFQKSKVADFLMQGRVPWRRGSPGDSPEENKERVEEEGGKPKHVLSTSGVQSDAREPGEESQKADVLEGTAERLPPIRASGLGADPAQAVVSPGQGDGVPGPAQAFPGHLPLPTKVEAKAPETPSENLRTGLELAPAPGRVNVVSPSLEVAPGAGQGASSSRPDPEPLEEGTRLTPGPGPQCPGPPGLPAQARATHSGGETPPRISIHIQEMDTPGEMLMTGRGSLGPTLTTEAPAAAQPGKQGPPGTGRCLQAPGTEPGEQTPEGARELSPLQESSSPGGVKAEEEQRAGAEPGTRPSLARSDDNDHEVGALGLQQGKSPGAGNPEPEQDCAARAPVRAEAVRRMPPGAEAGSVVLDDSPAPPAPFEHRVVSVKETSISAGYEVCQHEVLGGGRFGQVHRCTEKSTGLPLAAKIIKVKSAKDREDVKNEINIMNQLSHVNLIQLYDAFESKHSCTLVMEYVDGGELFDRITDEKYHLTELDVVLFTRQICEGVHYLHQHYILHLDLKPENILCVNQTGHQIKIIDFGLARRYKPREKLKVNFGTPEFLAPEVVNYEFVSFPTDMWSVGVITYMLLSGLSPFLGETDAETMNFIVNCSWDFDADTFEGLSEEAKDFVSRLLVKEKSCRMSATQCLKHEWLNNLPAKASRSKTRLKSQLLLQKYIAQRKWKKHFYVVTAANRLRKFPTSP
DMPK (human), sequence (Q09013 whole entry, looked up): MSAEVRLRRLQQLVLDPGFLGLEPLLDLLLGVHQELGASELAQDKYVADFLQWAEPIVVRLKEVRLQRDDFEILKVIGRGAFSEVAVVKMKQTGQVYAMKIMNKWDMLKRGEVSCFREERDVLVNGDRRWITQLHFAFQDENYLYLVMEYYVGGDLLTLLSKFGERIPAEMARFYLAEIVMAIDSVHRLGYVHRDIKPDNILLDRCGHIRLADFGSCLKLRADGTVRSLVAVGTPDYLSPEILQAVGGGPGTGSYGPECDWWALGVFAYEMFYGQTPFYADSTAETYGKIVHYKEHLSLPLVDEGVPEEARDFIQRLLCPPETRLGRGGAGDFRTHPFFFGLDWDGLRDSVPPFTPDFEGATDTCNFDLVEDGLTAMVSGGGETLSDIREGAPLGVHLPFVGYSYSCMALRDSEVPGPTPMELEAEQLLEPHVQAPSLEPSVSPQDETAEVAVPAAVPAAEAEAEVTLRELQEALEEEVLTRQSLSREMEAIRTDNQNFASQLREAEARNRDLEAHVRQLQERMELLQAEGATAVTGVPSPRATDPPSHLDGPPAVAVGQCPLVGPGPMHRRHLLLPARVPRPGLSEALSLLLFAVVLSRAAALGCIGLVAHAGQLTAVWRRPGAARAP

## Cn1c2ccccc2c2c3c(c4c5ccccc5n(CCC#N)c4c21)CNC3=O
ACVR1B (human)
  kinase still bound, per cent of control: 85%
AKT1 (human)
  kinase still bound, per cent of control: 100%
[1]
  kinase still bound, per cent of control: 92%
CAMKK1 (human)
  kinase still bound, per cent of control: 6.1%
CASK (human)
  kinase still bound, per cent of control: 72%
CDK8 (human)
  kinase still bound, per cent of control: 85%
CDK9 (human)
  kinase still bound, per cent of control: 100%
CSK (human)
  kinase still bound, per cent of control: 100%
CSNK1G3 (human)
  kinase still bound, per cent of control: 84%
DMPK (human)
  kinase still bound, per cent of control: 100%
[2]
  kinase still bound, per cent of control: 77%
EPHA4 (human)
  kinase still bound, per cent of control: 97%
EPHA7 (human)
  kinase still bound, per cent of control: 81%
EPHB4 (human)
  kinase still bound, per cent of control: 100%
FGFR3 (human)
  kinase still bound, per cent of control: 97%
[3]
  kinase still bound, per cent of control: 100%
[4]
  kinase still bound, per cent of control: 0%
GRK4 (human)
  kinase still bound, per cent of control: 3%
HUNK (human)
  kinase still bound, per cent of control: 87%
[5]
  kinase still bound, per cent of control: 10%
[6]
  kinase still bound, per cent of control: 0.2%
[7]
  kinase still bound, per cent of control: 30%
[8]
  kinase still bound, per cent of control: 100%
LATS1 (human)
  kinase still bound, per cent of control: 31%
MARK3 (human)
  kinase still bound, per cent of control: 16%
MET (human)
  kinase still bound, per cent of control: 88%
MYLK (human)
  kinase still bound, per cent of control: 56%
MYLK3 (human)
  kinase still bound, per cent of control: 100%
PI4KB (human)
  kinase still bound, per cent of control: 62%
[9]
  kinase still bound, per cent of control: 100%
PIK3CD (human)
  kinase still bound, per cent of control: 45%
PLK4 (human)
  kinase still bound, per cent of control: 6.5%
PRKCD (human)
  kinase still bound, per cent of control: 43%
PRKG1 (human)
  kinase still bound, per cent of control: 67%
RIOK2 (human)
  kinase still bound, per cent of control: 64%
RPS6KA3 KD1 (human)
  kinase still bound, per cent of control: 25%
SNRK (human)
  kinase still bound, per cent of control: 69%
SRPK2 (human)
  kinase still bound, per cent of control: 9.2%
STK11 (human)
  kinase still bound, per cent of control: 4.4%
STK32C (human)
  kinase still bound, per cent of control: 100%
TNK1 (human)
  kinase still bound, per cent of control: 2%
